Results from PMC9828437, “Novel hybrids of thiazolidinedione-1,3,4-oxadiazole derivatives: synthesis, molecular docking, MD simulations, ADMET study, in vitro, and in vivo anti-diabetic assessment” (RSC Advances, 2023).
Several values for one entry are separate records, joined by “and”; a condition that tells them apart may be missing. Identical values can stand only once.

Key:
α-amylase = assay: In vitro α-amylase inhibitory assay; assay type: biochemical; details: mean of three replicates ±SD
Procedure: The reaction mixture contains 20 μL of α-amylase solution (0.5 mg mL^−1) and 200 μL of sodium phosphate buffer (pH 6.9, 0.02 M). Test samples ([…]) were added (250 μL) to the reaction mixture following which; incubation was carried out for 10 min at room temperature. This was accompanied by the addition of 200 μL of 1% starch solution, and further incubated for 10 min at 25 °C. By adding 400 μL of dinitrosalicylic acid (DNS) reagent, the reaction was terminated. Lastly, it was incubated in water (70 °C, 5 min). The absorbance was recorded using an ELISA microplate reader at 540 nm. […] All the experiments were performed in triplicates. It was the reaction mixture without the test sample that served as the control for the test.[31]
The percent inhibition was calculated as:% Inhibition = [(C − T)/C] × 100C – absorbance of control, T – absorbance of sample.

α-glucosidase = assay: In vitro α-glycosidase inhibitory assay; assay type: biochemical; details: mean of three replicates ±SD
Procedure: The reaction mixture contains 50 μL of 0.1 M phosphate buffer (pH = 6.8), 10 μL of α-glucosidase enzyme and 20 μL of test samples (10–50 μg mL^−1) were taken in a 96-well plate and incubated at 37 °C for 15 min. Furthermore, 20 μL of p-nitrophenyl D-glucopyranoside solution was added as a substrate and incubated for an additional 20 min at 37 °C. 50 μL of 0.1 M Na2CO3 is added to terminate the reaction. The liberated p-nitrophenol was measured at 405 nm with an Elisa microplate reader. […] All the experiments were performed in triplicates.[31]
The inhibition was calculated in percentage as:% Inhibition = [(C − T)/C] × 100C – absorbance of control, T – absorbance of sample.

Drosophila melanogaster = assay: In vivo antihyperglycemic test in Drosophila on high sugar diet; details: for significance of antihyperglycemic activity: Drosophila on HSD, 18 μg g^−1 feed; for reduction in glucose levels, female flies / percent reduction in glucose levels, male flies: HSD with 18 μg g^−1 feed, 10 days
Procedure: In this study, Oregon-R flies were obtained directly from the Nitte University, Drosophila Lab, Mangalore, India, and maintained on a wheat cream-agar medium with a relative humidity of 65–70%, and a light–dark cycle of twelve hours each. Separation of males and females of one-day-old flies were cultured in, food containing high sugar diet (HSD), and different groups of food containing HSD with uniform concentrations (18 μg g^−1 feed) of the compounds 5a, 5b, 5j for 10 days. Acarbose was administered as a positive control. Twenty flies were taken and they were homogenized in 0.2 mL of ice-cold phosphate buffer saline. (pH 7.4). Homogenized samples were centrifuged at 10 000g for 15 min at 4 °C. All fly homogenates were tested for glucose concentration using the manufacturer's protocol (Agape Diagnostics Ltd, India). Throughout the experiments, the control group was maintained in the same conditions as that of other groups except for HSD and compounds. All experiments were carried out in triplicates and the results were expressed in percentages respective to the control group.[32]
The results of all the experiments (n = 3) were analyzed and expressed as mean ± standard deviation (SD). The Student's t-test was performed using GraphPad Prism software (GraphPad Software Inc., CA, USA). p values ≤ 0.05 were considered as statistically significant (*p ≤ 0.05; *p ≤ 0.01; **p ≤ 0.001).

NIH/3T3 cells = assay: MTT cytotoxicity assay; assay type: cell-based; details: 100 μmol, 24 h incubation
Procedure: The cytotoxic concentration of synthetic compounds (5a–5j) was evaluated by MTT assay. A standard MTT assay was performed with various concentrations of synthesized compounds against NIH/3T3 cells using a 96-well microplate reader at 570 nm. The cell lines were cultured in DMEM, supplemented with 10% FBS in flasks, and incubated at 37 °C with 5% CO2 in DMEM medium with streptomycin and penicillin (100 IU mL^−1) at the appropriate concentrations. The 96-well plates with media were incubated. After overnight incubation, each plate was discarded and fresh medium was added to each well with varying concentrations (5 μM, 10 μM, 25 μM, 50 μM, 100 μM) of test samples. Then, 200 μL of MTT (0.5 mg mL^−1) were put in each well and further incubated for four hours. Afterward, DMSO (100 μL) was transferred into each microplate well. The absorbance was measured at 570 nm to determine how much MTT was reduced to formazan in the cells.

With “3-((5-(4-Aminophenyl)-1,3,4-oxadiazol-2-yl)methyl)thiazolidine-2,4-dioneone [Compound 5c]” as the molecule, how does the IC50 (α-amylase) read?
The IC50 was 22.6 µM and 34.1 µM.

What about the IC50 (α-glucosidase) of the same molecule?
Its IC50 is 27.25 ± 0.23 µM.

For “3-((5-(4-Bromophenyl)-1,3,4-oxadiazol-2-yl)methyl)thiazolidine-2,4-dione [Compound 5b]”, which “significance of antihyperglycemic activity” value (Drosophila melanogaster) is on record?
The value was “significant”.

What about the “reduction in glucose levels, female flies” value (Drosophila melanogaster; whole-body homogenate) of the same molecule?
Its value is 7.03%.

What about the “percent reduction in glucose levels, male flies” value (Drosophila melanogaster; whole-body homogenate) of the same molecule?
Its value is 28.4%.

And the IC50 (α-amylase)?
The IC50 was 34.1 µM and 22.6 µM.

And the IC50 (α-glucosidase)?
Its IC50 is 22.25 ± 0.22 µM.

For C[C@H]1O[C@H](O[C@H]2[C@H](O)[C@@H](O)[C@@H](O[C@H]3[C@H](O)[C@@H](O)C(O)O[C@@H]3CO)O[C@@H]2CO)[C@H](O)[C@@H](O)[C@@H]1N[C@H]1C=C(CO)[C@@H](O)[C@H](O)[C@H]1O (stereo partly shown) [Acarbose, reference compound], which “reduction in glucose level” value (Drosophila melanogaster; HSD along with acarbose, whole-body homogenate, sex not stated) is on record?
Its value is “about 62%”.

Which “significance of antihyperglycemic activity” value (Drosophila melanogaster) does the source give for O=C1CSC(=O)N1Cc1nnc(-c2ccc(Cl)cc2Cl)o1 [Compound 5a, 3-((5-(2,4-Dichlorophenyl)-1,3,4-oxadiazol-2-yl)methyl)thiazolidine-2,4-dione] here?
The value was “insignificant”.

What about the “reduction in glucose levels, female flies” value (Drosophila melanogaster; whole-body homogenate) of the same molecule?
Its value is 12.1%.

And the “percent reduction in glucose levels, male flies” value (Drosophila melanogaster; whole-body homogenate)?
The value was 27.7%.

What about the IC50 (α-amylase) of the same molecule?
The IC50 was 18.6 ± 0.22 µM.

What about the melting point of the same molecule?
The melting point was 210 to 212 °C.

What about the IC50 (α-glucosidase) of the same molecule?
The IC50 was 17.6 ± 0.19 µM.

With O=C1CSC(=O)N1Cc1nnc(-c2ccc(O)cc2)o1 [Compound 5d, 3-((5-(4-Hydroxyphenyl)-1,3,4-oxadiazol-2-yl)methyl)thiazolidine-2,4-dione] as the molecule, how does the “percentage cell toxicity (inhibition of cellular viability)” value (NIH/3T3 cells) read?
The value was 87%.

What about the IC50 (α-amylase) of the same molecule?
The IC50 was 55.4 ± 0.66 µM.

What about the melting point of the same molecule?
Its melting point is 192 to 194 °C.

What about the IC50 (α-glucosidase) of the same molecule?
The IC50 was 45.3 ± 0.79 µM.

What does the source list for O=C1CSC(=O)N1Cc1nnc(-c2ccccc2)o1 [Compound 5e, 3-((5-Phenyl-1,3,4-oxadiazol-2-yl)methyl)thiazolidine-2,4-dione]?
IC50 (α-amylase): 32.4 ± 0.46 µM; melting point: 215 to 217 °C; IC50 (α-glucosidase): 33.5 ± 0.45 µM

For COc1ccc(-c2nnc(CN3C(=O)CSC3=O)o2)cc1 [Compound 5f, 3-((5-(4-Methoxyphenyl)-1,3,4-oxadiazol-2-yl)methyl)thiazolidine-2,4-dione], which IC50 (α-amylase) is on record?
Its IC50 is 39.2 ± 0.52 µM.

And the melting point?
Its melting point is 178 to 180 °C.

What about the IC50 (α-glucosidase) of the same molecule?
Its IC50 is 51.3 ± 0.83 µM.

Which results are given for O=C1CSC(=O)N1Cc1nnc(-c2ccc(Cl)cc2)o1 [Compound 5g, 3-((5-(4-Chlorophenyl)-1,3,4-oxadiazol-2-yl)methyl)thiazolidine-2,4-dione]?
IC50 (α-amylase): 28.9 ± 0.36 µM; melting point: 172 to 174 °C; IC50 (α-glucosidase): 27.25 ± 0.24 µM

With O=C1CSC(=O)N1Cc1nnc(-c2ccc([N+](=O)[O-])cc2Cl)o1 [Compound 5h, 3-((5-(2-Chloro-4-nitrophenyl)-1,3,4-oxadiazol-2-yl)methyl)thiazolidine-2,4-dione] as the molecule, how does the IC50 (α-amylase) read?
The IC50 was 23.2 ± 0.31 µM.

What about the melting point of the same molecule?
Its melting point is 161 to 163 °C.

And the IC50 (α-glucosidase)?
The IC50 was 28.2 ± 0.31 µM.

For O=C1CSC(=O)N1Cc1nnc(-c2ccc([N+](=O)[O-])cc2)o1 [Compound 5i, 3-((5-(4-Nitrophenyl)-1,3,4-oxadiazol-2-yl)methyl)thiazolidine-2,4-dione], which IC50 (α-amylase) is on record?
Its IC50 is 21.1 ± 0.23 µM.

What about the melting point of the same molecule?
Its melting point is 153 to 155 °C.

What about the IC50 (α-glucosidase) of the same molecule?
Its IC50 is 25.2 ± 0.28 µM.

Which results are given for O=C1CSC(=O)N1Cc1nnc(-c2ccc(O)cc2O)o1 [Compound 5j, 3-((5-(2,4-Dihydroxyphenyl)-1,3,4-oxadiazol-2-yl)methyl)thiazolidine-2,4-dione]?
significance of antihyperglycemic activity (Drosophila melanogaster): significant; reduction in glucose levels, female flies (Drosophila melanogaster; whole-body homogenate): 37%; percent reduction in glucose levels, male flies (Drosophila melanogaster; whole-body homogenate): 29.05%; percentage cell toxicity (inhibition of cellular viability) (NIH/3T3 cells): 83%; IC50 (α-amylase): 18.4 ± 0.21 µM; melting point: 204 to 206 °C; IC50 (α-glucosidase): 17.2 ± 0.22 µM
